Laboratory results as given in patent US20250000093A1, “HETEROCYCLIC COMPOUNDS FOR THE CONTROL OF INVERTEBRATE PESTS” (BASF SE, priority 2021, published 2025).

Tests used:
Type in all cases: in vivo
Myzus persicae = test: B.2 Green peach aphid, systemic test on artificial diet in microtiter plates; conditions: for mortality at 2500 ppm: Myzus persicae, 72 h, adult aphids, 3 days, read-out: mortality in comparison with untreated controls; for B.2, 10 ppm / B.2, 25 ppm: comparative experiment, aphid mortality, unit not given
Description: B.2 Green Peach Aphid (Myzus persicae)
For evaluating control of green peach aphid (Myzus persicae) through systemic means the test unit consisted of 96-well-microtiter plates containing liquid artificial diet under an artificial mem brane.
The compounds were formulated using a solution containing 75% v/v water and 25% v/v DMSO. Different concentrations of formulated compounds were pipetted into the aphid diet, using a custom built pipetter, at two replications.
After application, 5-8 adult aphids were placed on the artificial membrane inside the microtiter plate wells. The aphids were then allowed to suck on the treated aphid diet and incubated at about 23±1° C. and about 50±5% relative humidity for 3 days. Aphid mortality and fecundity was then visually assessed.

Heliothis virescens = test: B.3 Tobacco budworm, insect diet and eggs in microtiter plates; conditions: 120 h, egg and larval mortality, 5 days, read-out: mortality in comparison with untreated controls
Protocol: B.3 Tobacco Budworm (Heliothis virescens)
For evaluating control of tobacco budworm (Heliothis virescens) the test unit consisted of 96-well-microtiter plates containing an insect diet and 15-25 H. virescens eggs.
The compounds were formulated using a solution containing 75% v/v water and 25% v/v DMSO. Different concentrations of formulated compounds were sprayed onto the insect diet at 10 μl, using a custom-built micro atomizer, at two replications.
After application, microtiter plates were incubated at about 28±1° C. and about 80±5% relative humidity for 5 days. Egg and larval mortality was then visually assessed.

Anthonomus grandis = test: B.4 Boll weevil, insect diet and eggs in microtiter plates; conditions: 120 h, egg and larval mortality, 5 days, read-out: mortality in comparison with untreated controls
Protocol: B.4 Boll Weevil (Anthonomus grandis)
For evaluating control of boll weevil (Anthonomus grandis) the test unit consisted of 96-well-microtiter plates containing an insect diet and 5-10 A. grandis eggs.
The compounds were formulated using a solution containing 75% v/v water and 25% v/v DMSO. Different concentrations of formulated compounds were sprayed onto the insect diet at 5 μl, using a custom-built micro atomizer, at two replications.
After application, microtiter plates were incubated at about 25±1° C. and about 75±5% relative humidity for 5 days. Egg and larval mortality was then visually assessed.

Dichromothrips corbetti = test: B.6 Orchid thrips, floral-immersion technique; conditions: for mortality at 300 ppm: Dichromothrips corbetti, adult thrips, 72 hours after treatment, read-out: mortality in comparison with untreated controls; for B.6, 100 ppm: comparative experiment, thrips mortality, unit not given
Protocol: B.6 Orchid Thrips (Dichromothrips corbetti)
Dichromothrips corbetti adults used for bioassay were obtained from a colony maintained continuously under laboratory conditions. For testing purposes, the test compound is diluted in a 1:1 mixture of acetone:water (vol:vol), plus Kinetic HV at a rate of 0.01% v/v.
Thrips potency of each compound was evaluated by using a floral-immersion technique. All petals of individual, intact orchid flowers were dipped into treatment solution and allowed to dry in Petri dishes. Treated petals were placed into individual re-sealable plastic along with about 20 adult thrips. All test arenas were held under continuous light and a temperature of about 28° C. for duration of the assay. After 3 days, the numbers of live thrips were counted on each petal. The percent mortality was recorded 72 hours after treatment.

Plutella xylostella = test: B.1 Diamond back moth, cabbage leaf dip test; conditions: foliar, 3rd instar larvae, 72 hours after treatment, read-out: mortality in comparison with untreated controls
Protocol: B.1 Diamond Back Moth (Plutella xylostella)
The active compound was dissolved at the desired concentration in a mixture of 1:1 (vol:vol) distilled water:acetone. Surfactant (Kinetic HV) was added at a rate of 0.01% (vol/vol). The test solution was prepared on the day of use.
Leaves of cabbage were dipped in test solution and air-dried. Treated leaves were placed in petri dishes lined with moist filter paper and inoculated with ten 3rd instar larvae. Mortality was recorded 72 hours after treatment. Feeding damages were also recorded using a scale of 0-100%.

Aedes aegypti = test: B.7 Yellow fever mosquito, larvae in microtiter plates; conditions: comparative experiment, larval mortality after 2 days, unit not given
Protocol: B.7 Yellow Fever Mosquito (Aedes aegypti)
For evaluating control of yellow fever mosquito (Aedes aegypti) the test unit consisted of 96-well-microtiter plates containing 200 μl of tap water per well and 5-15 freshly hatched A. aegypti larvae.
The active compounds were formulated using a solution containing 75% (v/v) water and 25% (v/v) DMSO. Different concentrations of formulated compounds or mixtures were sprayed onto the insect diet at 2.5 μl, using a custom-built micro atomizer, at two replications.
After application, microtiter plates were incubated at 28±1° C., 80±5% RH for 2 days. Larval mortality was then visually assessed.

Spodoptera eridania = test: B.5 Southern armyworm, 2nd instar larvae, sprayed lima bean plants; conditions: 96 h, 4 days after treatment, read-out: mortality in comparison with untreated controls
Protocol: B.5. Southern Armyworm (Spodoptera eridania), 2nd Instar Larvae
The active compounds were formulated by a Tecan liquid handler in 100% cyclohexanone as a 10,000 ppm solution supplied in tubes. The 10,000 ppm solution was serially diluted in 100% cyclohexanone to make interim solutions. These served as stock solutions for which final dilutions were made by the Tecan in 50% acetone:50% water (v/v) into 10 or 20 ml glass vials. A nonionic surfactant (Kinetic®) was included in the solution at a volume of 0.01% (v/v). The vials were then inserted into an automated electrostatic sprayer equipped with an atomizing nozzle for application to plants/insects. Lima bean plants (variety Sieva) were grown 2 plants to a pot and selected for treatment at the 1st true leaf stage. Test solutions were sprayed onto the foliage by an automated electrostatic plant sprayer equipped with an atomizing spray nozzle. The plants were dried in the sprayer fume hood and then removed from the sprayer. Each pot was placed into perforated plastic bags with a zip closure. Ten to 11 armyworm larvae were placed into the bag and the bags zipped closed. Test plants were maintained in a growth room at about 25° C. and about 20-40% relative humidity for 4 days, avoiding direct exposure to fluorescent light (14:10 light:dark photoperiod) to prevent trapping of heat inside the bags. Mortality and reduced feeding were assessed 4 days after treatment, compared to untreated control plants.

| Structure (SMILES) | mortality at 2500 ppm (Myzus persicae) | mortality at 2500 ppm (Heliothis virescens) | mortality at 2500 ppm (Anthonomus grandis) | mortality at 300 ppm (Dichromothrips corbetti) | B.2, 10 ppm (Myzus persicae) | B.6, 100 ppm (Dichromothrips corbetti) | B.2, 25 ppm (Myzus persicae) | mortality at 300 ppm (Plutella xylostella) | B.7, 10 ppm (Aedes aegypti) | mortality at 300 ppm (Spodoptera eridania) |
| --- | --- | --- | --- | --- | --- | --- | --- | --- | --- | --- |
| CC(NC(=O)c1cc(Br)cc(C(F)(F)F)c1)c1nccnc1-n1ncn(CC(F)(F)F)c1=O (stereo not shown) [I-2, 3-bromo-N-[1-[3-[5-oxo-4-(2,2,2-trifluoroethyl)-1,2,4-triazol-1-yl]pyrazin-2-yl]ethyl]-5-(trifluoromethyl)benzamide] | ≥ 75% | ≥ 75% | ≥ 75% | ≥ 75% | – | – | – | – | – | – |
| COc1ccc(Cn2cnn(-c3nccnc3C(C)NC(=O)c3cc(Br)cc(S(C)(=O)=O)c3)c2=O)cc1 (stereo not shown) [I-3, 3-bromo-N-[1-[3-[4-[(4-methoxyphenyl)methyl]-5-oxo-1,2,4-triazol-1-yl]pyrazin-2-yl]ethyl]-5-methylsulfonyl-benzamide] | ≥ 75% | – | – | – | – | – | – | – | – | – |
| CC(NC(=O)c1cc(C(F)(F)F)cc(C(F)(F)F)c1)c1nccnc1-n1cncn1 (stereo not shown) [WO2021/037614 P46, reference compound] | – | – | – | – | 25 | 0 | – | – | – | – |
| CC(c1nccnc1-n1ncn(CC(F)(F)F)c1=O)N(CC1CC1)C(=O)c1cc(C(F)(F)F)cc(C(F)(F)F)c1 (stereo not shown) [I-15] | ≥ 75% | ≥ 75% | ≥ 75% | ≥ 75% | – | – | 100 | ≥ 75% | 100 | ≥ 75% |
| CC(c1nccnc1-n1ncn(C)c1=O)N(C)C(=O)c1cc(Br)cc(S(C)(=O)=O)c1 (stereo not shown) [I-8, 3-bromo-N-methyl-N-[1-[3-(4-methyl-5-oxo-1,2,4-triazol-1-yl)pyrazin-2-yl]ethyl]-5-methylsulfonyl-benzamide] | ≥ 75% | – | – | – | – | – | – | – | – | – |
| CC(NC(=O)c1cc(Br)cc(S(C)(=O)=O)c1)c1nccnc1-n1ncn(CC2CC2)c1=O (stereo not shown) [I-5, 3-bromo-N-[1-[3-[4-(cyclopropylmethyl)-5-oxo-1,2,4-triazol-1-yl]pyrazin-2-yl]ethyl]-5-methylsulfonyl-benzamide] | ≥ 75% | – | ≥ 75% | – | – | – | – | ≥ 75% | – | ≥ 75% |
| CC(c1nccnc1-n1cncn1)N(CC1CC1)C(=O)c1cc(C(F)(F)F)cc(C(F)(F)F)c1 (stereo not shown) [WO2021/037614 P48, reference compound] | – | – | – | – | – | – | 50 | – | 0 | – |
| CC(NC(=O)c1cc(C(F)(F)F)cc(C(F)(F)F)c1)c1nccnc1-n1ncn(C)c1=O (stereo not shown) [I-10] | ≥ 75% | ≥ 75% | ≥ 75% | ≥ 75% | 100 | 100 | – | ≥ 75% | – | ≥ 75% |
| CC(NC(=O)c1cc(Br)cc(C(F)(F)F)c1)c1nccnc1-n1ncn(C)c1=O (stereo not shown) [I-1, 3-bromo-N-[1-[3-(4-methyl-5-oxo-1,2,4-triazol-1-yl)pyrazin-2-yl]ethyl]-5-(trifluoromethyl)benzamide] | ≥ 75% | ≥ 75% | ≥ 75% | ≥ 75% | – | – | – | – | – | – |
